The source of these data is PubChem BioAssay (NCI).

Each structure is given as a SMILES string.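 Results reflect a 48-hour exposure of cells in 96-well plates to compound at five concentrations. GI50 marks 50% less growth. TGI: total growth inhibition.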

Some test systems named below: A549 NSCLC; DU-145 prostate; HOP-62 NSCLC; IGROV1 ovarian; KM12 colon; NCI-H522 lung; SF-268 CNS; SK-MEL-5 melanoma; SNB-19 CNS; UACC-257 melanoma.
What all share (assay): growth of human tumour cells (NCI), 48 h

On to `ClCC[N+]12CC[N+](CCCl)(CC1)C2`, for which the TGI in the assay on A549 NSCLC, with DU-145 prostate, with HOP-62 NSCLC, with IGROV1 ovarian, in the assay on KM12 colon and with NCI-H522 lung was greater than 100 µM in each case. In addition, the TGI with SF-268 CNS, in the assay with SK-MEL-5 melanoma, with SNB-19 CNS and in the assay with UACC-257 melanoma was greater than 100 µM each time.
As to `CCOc1cc(C(C)(C)C)ccc1C1=N[C@@](C)(c2ccc(Cl)cc2)[C@@](C)(c2ccc(Cl)cc2)N1C(=O)N1CCN(CCCS(C)(=O)=O)CC1`, the GI50 with A549 NSCLC is 1.01 µM; in the assay with DU-145 prostate it was 11 µM; with HOP-62 NSCLC, 11.4 µM; with IGROV1 ovarian, 1.4 µM; in the assay with KM12 colon, 11.4 µM; with NCI-H522 lung, 7.11 µM. Besides, the GI50 with SF-268 CNS is 9.42 µM; in the assay on SK-MEL-5 melanoma, 1.63 µM; in the assay on SNB-19 CNS, 5.12 µM; in the assay with UACC-257 melanoma it was 2.02 µM. Further, the TGI in the assay with A549 NSCLC was determined as 19.4 µM; with DU-145 prostate, 25.6 µM; in the assay with HOP-62 NSCLC, 29.3 µM; in the assay on IGROV1 ovarian it was 10.9 µM; in the assay with KM12 colon, 28 µM; in the assay with NCI-H522 lung it was 39.2 µM. Also, the TGI in the assay on SF-268 CNS was found to be 37.6 µM; in the assay with SK-MEL-5 melanoma, 3.21 µM; in the assay on SNB-19 CNS, 17.8 µM; in the assay on UACC-257 melanoma, 15.8 µM.
Regarding `O=c1cccc(C#CC#CC2=CCCCC2)o1`, the GI50 in the assay with A549 NSCLC is 10.1 µM; in the assay on DU-145 prostate, 1.96 µM; with HOP-62 NSCLC, 8.65 µM; in the assay with IGROV1 ovarian it was 5.4 µM; in the assay on KM12 colon it was 5.84 µM; with NCI-H522 lung it was 4.03 µM. The GI50 was 9.15 µM with SF-268 CNS, 3.3 µM in the assay with SK-MEL-5 melanoma, 12 µM in the assay on SNB-19 CNS and 7.49 µM with UACC-257 melanoma. Moreover, the TGI is greater than 47.7 µM in the assay with A549 NSCLC; 4.4 µM with DU-145 prostate; 16.3 µM with HOP-62 NSCLC; 18.1 µM in the assay with IGROV1 ovarian; 13.6 µM with KM12 colon; 10.9 µM with NCI-H522 lung. Besides, the TGI in the assay with SF-268 CNS was found to be 20.6 µM; in the assay with SK-MEL-5 melanoma, 8.89 µM; in the assay on SNB-19 CNS, 32.6 µM; in the assay with UACC-257 melanoma, 12.9 µM.
For `O=S(=O)(Nc1cc(Sc2cccc3cccnc23)c(O)c2ccccc12)c1ccccc1`, the GI50 in the assay with A549 NSCLC is 0.747 µM; in the assay with DU-145 prostate, 0.828 µM; in the assay with HOP-62 NSCLC, 1.01 µM; in the assay on IGROV1 ovarian it was 1.01 µM; in the assay on KM12 colon, 2.03 µM; with NCI-H522 lung, 2.12 µM. Also, the GI50 in the assay on SF-268 CNS was 1.48 µM; with SK-MEL-5 melanoma, 1.36 µM; in the assay on SNB-19 CNS, 1.98 µM; in the assay with UACC-257 melanoma, 1.87 µM. For the same compound, the TGI with A549 NSCLC turned out to be 18.1 µM; in the assay on DU-145 prostate, 9.83 µM; with HOP-62 NSCLC, 25.4 µM; in the assay on IGROV1 ovarian, 6 µM; in the assay on KM12 colon, 16.5 µM; in the assay on NCI-H522 lung it was 8.17 µM. Moreover, the TGI in the assay with SF-268 CNS is 12.8 µM; in the assay on SK-MEL-5 melanoma it was 3.05 µM; in the assay with SNB-19 CNS, 21.4 µM; with UACC-257 melanoma, 5.01 µM.
With `COc1cccc2c(=O)c3c(sc12)c(N1CCNCC1)nc1ccccc13`, the GI50 is 1.81 µM with A549 NSCLC; 1.72 µM in the assay with DU-145 prostate; 1.87 µM with HOP-62 NSCLC; 1.41 µM with IGROV1 ovarian; 1.79 µM in the assay on KM12 colon; 1.79 µM with NCI-H522 lung. For the same compound, the GI50 was 1.75 µM with SF-268 CNS, 1.7 µM in the assay with SK-MEL-5 melanoma, 1.79 µM in the assay on SNB-19 CNS and 2.09 µM with UACC-257 melanoma. In addition, the TGI in the assay with A549 NSCLC is 4.26 µM; in the assay on DU-145 prostate it was 3.19 µM; with HOP-62 NSCLC, 4.3 µM; with IGROV1 ovarian, 2.88 µM; with KM12 colon it was 3.41 µM; in the assay on NCI-H522 lung it was 3.69 µM. Further, the TGI in the assay with SF-268 CNS was found to be 3.45 µM; in the assay on SK-MEL-5 melanoma it was 3.09 µM; with SNB-19 CNS it was 3.39 µM; in the assay on UACC-257 melanoma, 4.45 µM.
As to `C/C(N=NC(=S)N(C)C)=C1\C=CC=CN1O`, the TGI in the assay with A549 NSCLC is greater than 100 µM; in the assay on DU-145 prostate, greater than 100 µM; in the assay with HOP-62 NSCLC it was greater than 47.3 µM; in the assay with IGROV1 ovarian, greater than 100 µM; in the assay with KM12 colon it was greater than 100 µM; with NCI-H522 lung it was greater than 56.2 µM. Also, the TGI in the assay with SF-268 CNS, with SK-MEL-5 melanoma, in the assay with SNB-19 CNS and in the assay with UACC-257 melanoma was greater than 100 µM each time.
